Experiment [1] deals with human lymphocytes. In words: Human mitogenic (ConA) stimulation, 3H-thymidine incorporation. Format: cell-based. Particulars: for effect on activation / proliferative response: ConA 5 μg/ml, harvested 72 hours, FIGS. 7A, 8A, 9A; for effect on stimulation of ConA-stimulated human PBLs: reagents at 400 μM, time course, FIG. 4. Here is the method:
Blood from healthy volunteers was drawn using venipuncture, using Vacutainer collection sets and heparinized collection vials. The blood was diluted 1:1 using HBSS to a total volume of 30 ml in 50 ml conical tubes (Fisher Scientific, Co., Pittsburgh, Pa.). […] Cells from the buffy coats were collected and the residual Histopaque was washed away using repeated centrifugations in HBSS. After washes, cells were resuspended at 5 million cells per ml in RPMI, supplemented with 2% FBS. To remove adherent cells, the suspension was plated onto a 6 well flat-bottom plate (Corning Costar), 3 ml/well, and incubated for 2 hours at 37° C., 5% CO2. Non-adherent cells were harvested after this incubation, were counted and resuspended in RPMI supplemented with 10% human serum (Sigma).
All drugs were pre-plated before the cell suspension was added onto each well of a 96-well round-bottom plate. All experimental conditions were assayed in at least triplicate. Cells suspended in RPMI supplemented with 10% human serum were plated at 100,000 cells per well to a final volume of 200 μl. […] Control samples received no ConA stimulation. The plates were incubated at 37° C. and 5% CO2. One microCurie of tritiated thymidine was added to each well after 60 hours, and the plates were harvested 12 hours later.
(Uptake of a labelled nucleoside into DNA is a usual measure of proliferation.)

In the next experiment the test system is T cells. Kind of experiment: Macrophage media-conditioning study, T cell proliferation in conditioned media. Type of experiment: cell-based, mouse. As to conditions: for conditioning effect of the media: uptake inhibitor present during the conditioning phase. The source says:
Femur and tibia bones were harvested from the hind limbs of 6-8 week old C57/B6J mice (Jackson Laboratories, Bar Harbor, Me.). The distal ends of the bones were removed, exposing the marrow plugs. Using a 22 gauge needle (Becton-Dickinson, Lincoln Park, N.J.), the marrow cavities were flushed with RPMI medium supplemented 2% FBS. The cell suspension was then passed through a nylon mesh to remove stromal cells. Red blood cells were lysed using ACK (ammonium chloride potassium lysis buffer; 0.15 M NH4Cl, 10 mM KHCO3, 0.1 mM EDTA) buffer as described in Current Protocols in Immunology (Section 3.1.5).
Cells were resuspended at 10^7 cells/ml in RPMI medium, containing 10% FBS, 500 units/ml of murine M-CSF, and 3 ml/well of cell suspension were plated onto a 6 well flat-bottom plate. […] Cells were grown for 4 days. Spleens of 6-8 week old BALB/c/BYJ were harvested, and single cell suspension was made. Red blood cells were removed as described above. Adherent cells were removed by 1.5 hour incubation on a nylon wool column, and suspension cells were collected. The BALB/c cells were then plated over the C57/B6 cells (see supra), at 1.2×10^6 cells/well, in 0.65 ml (bringing brought the final volume of each well to 1.3 ml). The cells were grown for 2.5 days. When appropriate, fluoxetine or BCH were added at the beginning of this incubation. The medium from the mixed cell cultures was harvested, centrifuged at 1200 RPM to remove cells, and filtered using a 0.22 microns syringe filter (Corning). This filtered medium was used to support another round of cell proliferation.

In experiment [2] the test system is human lymphocytes. In words: Human mixed lymphocyte reaction (allogeneic stimulation). Format: cell-based. Particulars: allogeneic stimulation, harvested 120 hours, FIGS. 7B, 8B, 9B. The source says: Blood from two healthy, non-related, donors was taken as described above. Peripheral blood mononuclear cells were isolated as described previously elsewhere. The adherent cells were separated from the suspension cells as described previously for both donors. Suspension cells from both donors (donors A and B) were used as responders. The remaining adherent cells from each of the donors were used as stimulators against a different donor (suspension A against adherent B and adherent A against suspension B). The stimulator cells were irradiated at 35 Gy. Drugs were pre-plated onto 96 well, U-bottom plates in triplicate. 200,000 “stimulator” cells in RPMI supplemented with 10% human serum were then plated in each well. 200,000 “responder” cells in the same medium were then plated over stimulators to a final volume of 200 μl/well. Background controls received either no stimulator cells, or no responder cells. The plates were incubated at 37° C. and 5% CO2. 1 μCi of tritiated thymidine was added to each well after 4.5 days, and the plates were harvested 12 hours later.

In experiment [3] the test system is allogeneic CTL response to P815 cells. In words: Murine allograft model, CTL killing of P815 target cells by splenocytes. Type of experiment: in vivo, C57BL/6J mice. As to conditions: for effect on allogeneic killing response: tail vein 300 μg/injection on days 5 and 7, sacrificed day 14, FIGS. 18A, 18B; for effect on allograft (CTL) response: tail vein bolus 200 μg/injection on days 6 and 8, sacrificed day 14, FIG. 13. Here is the method: The in vivo validation screen used was an art-recognized murine allogeneic rejection model as described in Zhan et al., 2000. For this assay, a complete MHC miss-match system was employed wherein 5×10^6 P815 cells ([H-2^d] DBA/2 mastocytoma) were injected into the peritoneal cavity of C57BL/6J (H-2^b) mice on day 0 of the experiment. These mice typically generate a strong cytotoxic T lymphocyte (CTL) reaction in response to P815 cells. Following the initial P815 cell inoculation, the mice were allowed to develop a CTL response (this usually takes about 10-14 days). […] Mice were then sacrificed on day 14 of the experiment as indicated in the figures; and the allogeneic CTL response was assayed as described previously (Tretiakova et al., 2000, Nature Biotechnology 18:984-988). The primary spleen cells from the treated and untreated animals were used in the direct CTL readout. Freshly obtained primary spleen cells were incubated with the [^3H] labeled target cells (P815 cells) at 100:1, 50:1, 25:1, and 12.5:1 ratios for 3.5 hours at 37° C. and harvested using a PHD harvester. The percentage of specific killing was determined using the formula % kill=(S−E)/S, where S is the amount of the DNA retained by the target cells in the absence of the effector cells and E is the amount of retained DNA in the presence of the effector cells (expressed in counts per minute; cpm).
This is an art-recognized model of allograft […] rejection based on that described by […]. (2000). In this model, there is a complete MHC mismatch between the P815 cells (H-2^d) and the C57BL6 mouse (H-2^b), thus ensuring an aggressive immune response. The data disclosed in FIG. 13, depicts results of experiments that included 6 treatment groups, each group consisting of three mice. Each mouse received 5×10^6 P815 cells injected into the peritoneal cavity on day 0 of the study. The first group was an untreated control group, which was used to establish the baseline response of the mice against the allogeneic stimulus. These mice, without any further treatments, were sacrificed, as were the other treatment groups, on day 14 of the study and their splenocytes assayed for target-specific killing of the P815 cells.
The average kill observed for the untreated group was about 45% at an effector to target ratio of 100:1. […] The timing of the drug administration was selected to ensure that the T cells were fully activated prior to the drug treatment. The third group was treated with propanolol, a 5HT-1 antagonist. All of the 5HT receptor antagonist-treated groups were treated as described for the risperidone-treated group. The fourth group was treated chronically with CyclosporinA. The Cyclosporin A was administered ip at a dosage of 100 μg/injection starting two days prior to the onset of the study, i.e., at day-2, and the injections were continued on a daily basis for the duration of the study.
Finally, studies conducted in vivo using the CD8-dependent allograft rejection model, in which P815 cells (a rapidly growing cell line taken from a mastocytoma in a DBA mouse), were expanded and used to create a robust rejection response in a C57BL6 mouse. In this study the mice received 5×10^6 P815 cells injected into their peritoneal cavity on day 0 of the study. The first group was an untreated control group (naïve animals), used to acquire the baseline response of the mice against the allogeneic stimulus. The positive controls were treated with the allogeneic cells without any further treatments. These animals were used to assess the induced allogeneic response against the P815 cells.
All treatment groups were sacrificed on day 14 of the study and their splenocytes assayed for target-specific killing of the P815 cells (the averaged overall kill observed for the positive control group was about 45% at an effector to target ratio of 100:1). The serotonin-specific compounds were administered via tail vein injection (300 μg/injection) on days 5 and 7 of the study. […]

The next experiment relates to RPMI-8226 cells. Kind of experiment: Hematoxylin-eosin / bis-benzamide staining of RPMI-8226 cytospins. Particulars: 2 μM, 9 hour treatment, FIG. 28. Type of experiment: cell-based, human. Here is the method:
2.0×10^5 RPMI-8226 cells were cultured, in 6-well culture plates, in the presence of the indicated drug concentrations, in a total of 5 mL RPMI-1640 supplemented with 10% FBS. Each well was harvested in its entirety and divided into two identical samples for cytospins.
1.0×10^5 RPMI-8226 cells from each treatment group were loaded into Cyto-funnels and centrifuged at 500 rpm for 4 minutes with medium acceleration. Slides were then fixed through graded methanol in PBS (100%, 5 minutes; 80%, 5 minutes; 50%, 5 minutes), washed for 5 minutes in PBS and stored in PBS at 4° C. until stained.
Cytospun slides were stained with Hematoxylin and Eosin, followed by the nuclear stain, bis-benzamide, rinsed and mounted according to standard staining protocols. Slides were visualized under both brightfield and fluorescent light to generate matched images of the same slide field (see, e.g., FIGS. 28 and 29).

Structures are written as SMILES. Entries after “also recorded” stand apart in the source; their conditions may differ.

With `N[C@@H](Cc1ccc(Cl)cc1)C(=O)O` (racemic) [PCPA, para-chlorophenylalanine], the “effect on mitogenic response” value in the experiment on human lymphocytes [1] (ConA 1 μg/ml, human PBLs, FIG. 3) is “inhibits the mitogenic response in a dose-dependent manner”.
Take `NC1(C(=O)O)CC2CCC1C2` (stereo not shown) [2-amino 2-norbornane carboxylic acid]: the “conditioning effect of the media” value with T cells is listed as “can be prevented”.
In the case of `N[C@@H](Cc1c[nH]c2ccc(O)cc12)C(=O)O` [5-hydroxy-tryptophan], the “effect on proliferation response” value with human lymphocytes [1] (25 μM, in the absence of PCPA, FIG. 3) was “significantly enhanced the proliferation response”. In the experiment with human lymphocytes [1] (added to PCPA-inhibited cells, FIG. 3), the “reversal of PCPA inhibition of the mitogenic response” value is given as “this inhibition can be reversed”.
For the compound `OC(CN1CCN(c2cccc(Cl)c2)CC1)C(c1ccccc1)c1ccccc1` (stereo not shown) [BRL 15572], the “effect on activation / proliferative response” value in the experiment on human lymphocytes [2] and in the experiment on human lymphocytes [1] was “no effect upon the proliferative response” in each case.
As to `CC(O)C(C)OC(=O)[C@@H]1C[C@@H]2c3cccc4c3c(cn4C(C)C)C[C@H]2N(C)C1` (stereo partly shown) [LY 53857], the “effect on activation / proliferative response” value in the experiment with human lymphocytes [2] and in the experiment on human lymphocytes [1] was “inhibit the activation response at pharmacologically relevant concentrations” throughout.
Take `Cn1ccc2cc3c(cc21)CCN3C(=O)Nc1cccnc1` [SB 206553]: the “effect on activation / proliferative response” value with human lymphocytes [2] is listed as “inhibit the activation response at pharmacologically relevant concentrations”. For the same compound, in experiment [3], the “effect on allogeneic killing response” value is “striking” and the “effect on allograft (CTL) response” value was “inhibited the allograft response to varying degrees”. Besides, the “individual mouse responses within treated group” value in experiment [3] (three treated mice, FIG. 14) was “Two of the treated mice had the allogeneic response completely suppressed; also recorded: Two of the three treated mice inhibited the allograft response to a degree equivalent to that observed in the Cyclosporin A-treated animals”. In the experiment with human lymphocytes [1], the “effect on activation / proliferative response” value is recorded as “inhibit the activation response at pharmacologically relevant concentrations” and the “in vitro effect on activation response / helper T cell proliferation (summary statement)” value was “immediate cessation of proliferation”.
Turning to `COc1ccccc1N1CCN(CCN(C(=O)C2CCCCC2)c2ccccn2)CC1` [WAY 100635], in the experiment with human lymphocytes [1], the “in vitro effect on activation response / helper T cell proliferation (summary statement)” value was “significantly inhibits the activation response”.
With `CC[C@@]1(O)C(=O)OCc2c1cc1n(c2=O)Cc2cc3ccccc3nc2-1` [camptothecin], the “chromatin / nuclear morphology” value in the experiment on RPMI-8226 cells is “Extensive chromatin condensation and nuclear fragmentation”.
Take `CNCCC(Oc1ccc(C(F)(F)F)cc1)c1ccccc1` (stereo not shown) [fluoxetine]: the “conditioning effect of the media” value in the experiment on T cells was “can be prevented”.
For `CC[C@@H](CO)NC(=O)[C@@H]1C=C2c3cccc4c3c(cn4C)C[C@H]2N(C)C1` [methysergide], in experiment [3], the “effect on allogeneic killing response” value is “complete inhibition of the induced killing response; also recorded: abrogated the allogeneic killing response; also recorded: inhibition profile was striking” and the “effect on allograft (CTL) response” value is on record as “inhibited the allograft response to varying degrees”.
For `NNCCc1ccccc1` [phenelzine], in the experiment with human lymphocytes [1] (ConA 0.1 and 1 μg/ml, FIGS. 5A and 5B), the “drug concentration giving significant inhibition” value fell in the range of 10 to 100 µM. In the experiment with human lymphocytes [1] (higher ConA stimulation (10 μg/ml)), the “drug concentration giving full inhibition” value lay in the range of 100 to 400 µM. The “effect on proliferative response” value in the experiment with human lymphocytes [1] (highest ConA dose, 10 μg/ml, harvest 72 hours, FIG. 5C) is listed as “no inhibition was observed”. In the experiment with human lymphocytes [1], the “effect on stimulation of ConA-stimulated human PBLs” value is listed as “completely shut down the stimulation”.
Take `NCCc1c[nH]c2ccc(O)cc12` [serotonin, 5-hydroxytryptamine]: the “restoration of T cell proliferation in conditioned media” value in the experiment with T cells (added to conditioned media, FIG. 1) is “only marginally restored the assay”. Moreover, the “relief of phenelzine-induced inhibition” value in the experiment on human lymphocytes [1] (ConA 1 μg/ml, added to phenelzine-inhibited cells, 100 μM each, FIG. 6) is listed as “caused the assay to rebound to baseline levels”. For the same compound, in the experiment with human lymphocytes [1] (ConA 1 μg/ml, reagent 100 μM, FIG. 6), the “effect on proliferative response” value is listed as “did not”. The “effect on the assay across ConA concentrations” value in the experiment on human lymphocytes [1] (ConA 0.1, 1 and 10 μg/ml, harvest 72 hours, FIG. 5) is given as “no effect on the assay until the highest dose of ConA”. The “effect on stimulation of ConA-stimulated human PBLs” value with human lymphocytes [1] is “enhanced the maximal stimulation of the cells”.

Source of the values: patent publication US6979447B2, “Immunomodulation and effect on cell processes relating to serotonin family receptors” (Philadelphia Health and Education Corporation, priority 2001, dated 2005).
